Results: ChEMBL document CHEMBL4507277

Tests used:
[1] = system: Tyrosine-protein kinase ABL1 (Homo sapiens), P00519 [E255K]; settings: Compound concentration 1000.0 nM
[2] = system: Tyrosine-protein kinase ABL1 (Homo sapiens), P00519 [M351T]; settings: Compound concentration 1000.0 nM
[3] = target: Activin receptor type-1 (Homo sapiens) (UniProt Q04771); settings: Compound concentration 1000.0 nM
[4] = target: Activin receptor type-1B (Homo sapiens) (UniProt P36896); settings: Compound concentration 1000.0 nM
Sequence of Activin receptor type-1B (Homo sapiens) (P36896 whole entry): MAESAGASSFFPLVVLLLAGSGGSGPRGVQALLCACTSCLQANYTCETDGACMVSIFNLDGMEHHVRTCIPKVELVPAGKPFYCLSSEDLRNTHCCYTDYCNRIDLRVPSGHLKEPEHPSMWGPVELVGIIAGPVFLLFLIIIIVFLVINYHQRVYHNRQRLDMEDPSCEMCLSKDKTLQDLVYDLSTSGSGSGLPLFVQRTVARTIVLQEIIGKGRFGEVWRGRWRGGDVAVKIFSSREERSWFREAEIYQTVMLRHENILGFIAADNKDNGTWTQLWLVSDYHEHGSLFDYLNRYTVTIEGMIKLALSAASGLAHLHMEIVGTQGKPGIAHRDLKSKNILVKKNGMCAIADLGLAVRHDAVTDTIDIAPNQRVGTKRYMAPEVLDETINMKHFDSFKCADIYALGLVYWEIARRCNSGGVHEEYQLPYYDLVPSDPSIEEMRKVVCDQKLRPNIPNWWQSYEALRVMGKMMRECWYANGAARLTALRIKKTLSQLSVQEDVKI

[5] = target: RAC-alpha serine/threonine-protein kinase (Homo sapiens) (UniProt P31749); settings: Compound concentration 1000.0 nM
[6] = target: ALK tyrosine kinase receptor (Homo sapiens) (UniProt Q9UM73); settings: Compound concentration 1000.0 nM
[7] = target: Aurora kinase B (Homo sapiens) (UniProt Q96GD4); settings: Compound concentration 1000.0 nM
[8] = target: Tyrosine-protein kinase receptor UFO (Homo sapiens) (UniProt P30530); settings: Compound concentration 1000.0 nM
[9] = target: Calcium/calmodulin-dependent protein kinase kinase 2 (Homo sapiens) (UniProt Q96RR4); settings: Compound concentration 1000.0 nM
[10] = target: Cyclin-dependent kinase 11A (Homo sapiens) (UniProt Q9UQ88); settings: Compound concentration 1000.0 nM
[11] = target: Casein kinase I isoform gamma-1 (Homo sapiens) (UniProt Q9HCP0); settings: Compound concentration 1000.0 nM
[12] = target: Dual specificity tyrosine-phosphorylation-regulated kinase 1B (Homo sapiens) (UniProt Q9Y463); settings: Compound concentration 1000.0 nM
[13] = system: Epidermal growth factor receptor (Homo sapiens), P00533 [L861Q]; settings: Compound concentration 1000.0 nM
[14] = target: Serine/threonine-protein kinase/endoribonuclease IRE1 (Homo sapiens) (UniProt O75460); settings: Compound concentration 1000.0 nM
[15] = target: Fibroblast growth factor receptor 3 (Homo sapiens) (UniProt P22607); settings: Compound concentration 1000.0 nM
[16] = target: Tyrosine-protein kinase JAK3 (Homo sapiens) (UniProt P52333); settings: Compound concentration 1000.0 nM
Sequence of Tyrosine-protein kinase JAK3 (Homo sapiens) (P52333 whole entry): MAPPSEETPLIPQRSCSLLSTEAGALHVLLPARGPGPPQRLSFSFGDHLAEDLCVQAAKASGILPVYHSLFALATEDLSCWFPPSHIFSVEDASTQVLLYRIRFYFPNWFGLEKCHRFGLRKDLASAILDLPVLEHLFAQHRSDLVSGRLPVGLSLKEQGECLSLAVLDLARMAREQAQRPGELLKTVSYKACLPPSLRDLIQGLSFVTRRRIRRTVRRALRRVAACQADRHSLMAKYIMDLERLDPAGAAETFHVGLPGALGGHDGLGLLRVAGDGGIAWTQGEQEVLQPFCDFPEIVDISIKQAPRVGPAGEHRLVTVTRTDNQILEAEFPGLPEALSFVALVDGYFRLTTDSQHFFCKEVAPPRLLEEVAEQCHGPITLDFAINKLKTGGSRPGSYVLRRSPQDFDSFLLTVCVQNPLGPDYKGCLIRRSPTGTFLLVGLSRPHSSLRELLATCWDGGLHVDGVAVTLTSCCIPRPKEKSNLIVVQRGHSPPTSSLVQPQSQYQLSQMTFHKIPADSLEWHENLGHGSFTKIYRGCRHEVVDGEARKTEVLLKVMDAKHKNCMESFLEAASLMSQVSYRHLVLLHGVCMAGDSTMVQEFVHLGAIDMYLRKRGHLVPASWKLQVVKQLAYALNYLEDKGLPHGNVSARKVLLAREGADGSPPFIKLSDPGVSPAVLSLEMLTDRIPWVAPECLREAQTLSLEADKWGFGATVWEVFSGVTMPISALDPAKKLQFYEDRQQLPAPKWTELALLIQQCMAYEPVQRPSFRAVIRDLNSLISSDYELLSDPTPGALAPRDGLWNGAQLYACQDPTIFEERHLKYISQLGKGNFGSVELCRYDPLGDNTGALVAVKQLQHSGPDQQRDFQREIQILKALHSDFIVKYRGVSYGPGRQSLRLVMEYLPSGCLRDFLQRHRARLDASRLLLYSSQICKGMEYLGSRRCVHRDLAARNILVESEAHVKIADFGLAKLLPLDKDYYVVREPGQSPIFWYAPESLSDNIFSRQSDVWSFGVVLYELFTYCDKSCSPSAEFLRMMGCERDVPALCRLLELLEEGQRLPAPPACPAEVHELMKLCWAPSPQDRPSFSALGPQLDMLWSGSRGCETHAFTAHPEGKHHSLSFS

[17] = system: Mast/stem cell growth factor receptor Kit (Homo sapiens), P10721 [D816H]; settings: Compound concentration 1000.0 nM
[18] = target: Serine/threonine-protein kinase LATS1 (Homo sapiens) (UniProt O95835); settings: Compound concentration 1000.0 nM
[19] = target: Dual specificity mitogen-activated protein kinase kinase 7 (Homo sapiens) (UniProt O14733); settings: Compound concentration 1000.0 nM
[20] = target: Mitogen-activated protein kinase kinase kinase 9 (Homo sapiens) (UniProt P80192); settings: Compound concentration 1000.0 nM
[21] = target: Serine/threonine-protein kinase 38 (Homo sapiens) (UniProt Q15208); settings: Compound concentration 1000.0 nM
Sequence of Serine/threonine-protein kinase 38 (Homo sapiens) (Q15208 2-465 limits assumed): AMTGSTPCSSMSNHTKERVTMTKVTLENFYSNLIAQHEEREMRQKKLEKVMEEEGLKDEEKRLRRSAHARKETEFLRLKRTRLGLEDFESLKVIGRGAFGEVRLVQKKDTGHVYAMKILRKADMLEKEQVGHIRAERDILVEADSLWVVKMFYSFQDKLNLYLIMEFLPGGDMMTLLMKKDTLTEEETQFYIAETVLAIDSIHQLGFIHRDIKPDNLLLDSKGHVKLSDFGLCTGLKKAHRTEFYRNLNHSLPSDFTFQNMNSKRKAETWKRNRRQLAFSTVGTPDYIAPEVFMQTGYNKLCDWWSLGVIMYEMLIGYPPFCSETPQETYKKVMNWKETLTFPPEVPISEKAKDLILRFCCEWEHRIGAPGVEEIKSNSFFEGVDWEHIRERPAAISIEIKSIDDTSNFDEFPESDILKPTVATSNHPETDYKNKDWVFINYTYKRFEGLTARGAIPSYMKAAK

[22] = target: Mitogen-activated protein kinase 13 (Homo sapiens) (UniProt O15264); settings: Compound concentration 1000.0 nM
[23] = target: Phosphorylase b kinase gamma catalytic chain, skeletal muscle/heart isoform (Homo sapiens) (UniProt Q16816); settings: Compound concentration 1000.0 nM
[24] = system: Phosphatidylinositol 4,5-bisphosphate 3-kinase catalytic subunit alpha isoform (Homo sapiens), P42336 [C420R]; settings: Compound concentration 1000.0 nM
[25] = system: Phosphatidylinositol 4,5-bisphosphate 3-kinase catalytic subunit alpha isoform (Homo sapiens), P42336 [E542K]; settings: Compound concentration 1000.0 nM
[26] = target: Phosphatidylinositol 4-kinase beta (Homo sapiens) (UniProt Q9UBF8); settings: Compound concentration 1000.0 nM
Sequence of Phosphatidylinositol 4-kinase beta (Homo sapiens) (Q9UBF8 2-816 limits assumed): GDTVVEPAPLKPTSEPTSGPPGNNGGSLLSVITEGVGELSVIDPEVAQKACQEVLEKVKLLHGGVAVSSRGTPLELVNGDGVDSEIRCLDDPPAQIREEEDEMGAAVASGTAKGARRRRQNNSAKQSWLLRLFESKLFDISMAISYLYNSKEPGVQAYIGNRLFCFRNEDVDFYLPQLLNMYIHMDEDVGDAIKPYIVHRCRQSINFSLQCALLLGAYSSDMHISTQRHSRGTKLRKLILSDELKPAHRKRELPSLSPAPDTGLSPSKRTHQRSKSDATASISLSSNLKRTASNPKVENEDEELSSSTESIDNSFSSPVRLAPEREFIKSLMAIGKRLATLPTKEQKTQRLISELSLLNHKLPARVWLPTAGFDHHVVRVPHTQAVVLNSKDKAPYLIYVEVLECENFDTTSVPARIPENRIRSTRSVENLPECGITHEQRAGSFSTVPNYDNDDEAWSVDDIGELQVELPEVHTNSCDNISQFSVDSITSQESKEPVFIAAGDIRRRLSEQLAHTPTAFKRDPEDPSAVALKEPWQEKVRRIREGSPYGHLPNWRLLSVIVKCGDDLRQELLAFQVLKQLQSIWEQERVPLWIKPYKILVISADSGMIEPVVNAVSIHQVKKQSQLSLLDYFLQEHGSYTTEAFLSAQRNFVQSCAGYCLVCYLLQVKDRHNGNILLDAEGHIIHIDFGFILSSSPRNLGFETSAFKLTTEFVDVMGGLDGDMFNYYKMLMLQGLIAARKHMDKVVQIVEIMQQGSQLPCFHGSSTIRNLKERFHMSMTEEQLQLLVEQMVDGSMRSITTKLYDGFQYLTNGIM

[27] = target: Phosphatidylinositol 4-phosphate 5-kinase type-1 gamma (Homo sapiens) (UniProt O60331); settings: Compound concentration 1000.0 nM
[28] = target: Serine/threonine-protein kinase N1 (Homo sapiens) (UniProt Q16512); settings: Compound concentration 1000.0 nM
Sequence of Serine/threonine-protein kinase N1 (Homo sapiens) (Q16512 2-942 limits assumed): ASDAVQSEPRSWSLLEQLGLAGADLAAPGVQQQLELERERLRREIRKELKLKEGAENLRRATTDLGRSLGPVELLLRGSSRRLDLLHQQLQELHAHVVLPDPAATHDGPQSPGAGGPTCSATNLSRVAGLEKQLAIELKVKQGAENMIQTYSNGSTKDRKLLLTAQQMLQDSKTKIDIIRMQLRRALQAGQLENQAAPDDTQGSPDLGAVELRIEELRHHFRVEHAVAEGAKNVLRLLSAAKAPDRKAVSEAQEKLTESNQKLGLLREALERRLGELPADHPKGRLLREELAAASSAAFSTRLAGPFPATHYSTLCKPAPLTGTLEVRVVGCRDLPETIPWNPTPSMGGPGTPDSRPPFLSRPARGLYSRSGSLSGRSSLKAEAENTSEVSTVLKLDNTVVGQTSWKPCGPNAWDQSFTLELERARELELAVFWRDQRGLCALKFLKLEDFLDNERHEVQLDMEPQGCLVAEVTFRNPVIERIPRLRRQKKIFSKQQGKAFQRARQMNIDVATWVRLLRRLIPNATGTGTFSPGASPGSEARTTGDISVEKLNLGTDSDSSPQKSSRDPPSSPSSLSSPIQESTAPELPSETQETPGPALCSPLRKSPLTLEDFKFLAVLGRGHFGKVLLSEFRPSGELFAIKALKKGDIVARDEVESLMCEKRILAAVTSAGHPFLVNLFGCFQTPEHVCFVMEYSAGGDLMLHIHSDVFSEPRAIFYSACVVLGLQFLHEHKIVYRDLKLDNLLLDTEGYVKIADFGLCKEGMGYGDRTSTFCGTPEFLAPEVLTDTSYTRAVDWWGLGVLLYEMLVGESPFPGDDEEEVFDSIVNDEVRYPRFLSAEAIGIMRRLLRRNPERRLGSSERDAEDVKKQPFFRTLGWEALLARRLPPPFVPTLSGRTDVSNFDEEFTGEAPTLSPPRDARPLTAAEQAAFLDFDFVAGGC

[29] = target: Serine/threonine-protein kinase PknB (Mycobacterium tuberculosis) (UniProt P9WI81); settings: Compound concentration 1000.0 nM
[30] = target: Serine/threonine-protein kinase PLK2 (Homo sapiens) (UniProt Q9NYY3); settings: Compound concentration 1000.0 nM
[31] = target: Ribosomal protein S6 kinase alpha-6 (Homo sapiens) (UniProt Q9UK32); settings: Compound concentration 1000.0 nM
[32] = target: Serine/threonine-protein kinase Sgk2 (Homo sapiens) (UniProt Q9HBY8); settings: Compound concentration 1000.0 nM
[33] = target: Serine/threonine-protein kinase Sgk3 (Homo sapiens) (UniProt Q96BR1); settings: Compound concentration 1000.0 nM
[34] = target: STE20/SPS1-related proline-alanine-rich protein kinase (Homo sapiens) (UniProt Q9UEW8); settings: Compound concentration 1000.0 nM
[35] = target: High affinity nerve growth factor receptor (Homo sapiens) (UniProt P04629); settings: Compound concentration 1000.0 nM
Sequence of High affinity nerve growth factor receptor (Homo sapiens) (P04629 33-796 limits assumed): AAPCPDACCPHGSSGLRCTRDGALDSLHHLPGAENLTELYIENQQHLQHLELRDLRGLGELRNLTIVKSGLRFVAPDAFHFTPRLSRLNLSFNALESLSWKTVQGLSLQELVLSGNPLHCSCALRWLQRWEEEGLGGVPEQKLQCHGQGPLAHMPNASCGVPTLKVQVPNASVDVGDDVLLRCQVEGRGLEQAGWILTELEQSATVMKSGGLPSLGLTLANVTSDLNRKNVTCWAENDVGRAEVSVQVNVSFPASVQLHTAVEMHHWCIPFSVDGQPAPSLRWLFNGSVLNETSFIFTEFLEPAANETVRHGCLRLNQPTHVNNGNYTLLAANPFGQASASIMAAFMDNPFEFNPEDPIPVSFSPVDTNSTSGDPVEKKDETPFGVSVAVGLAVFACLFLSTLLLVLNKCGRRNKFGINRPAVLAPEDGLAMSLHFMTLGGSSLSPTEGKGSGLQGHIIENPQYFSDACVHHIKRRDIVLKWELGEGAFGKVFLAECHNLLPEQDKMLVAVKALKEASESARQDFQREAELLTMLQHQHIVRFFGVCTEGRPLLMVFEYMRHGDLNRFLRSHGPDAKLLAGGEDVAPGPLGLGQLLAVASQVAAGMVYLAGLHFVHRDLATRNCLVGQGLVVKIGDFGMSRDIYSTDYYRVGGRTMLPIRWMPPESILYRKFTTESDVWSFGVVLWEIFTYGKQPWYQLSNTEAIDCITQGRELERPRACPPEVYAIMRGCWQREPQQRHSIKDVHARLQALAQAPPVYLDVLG

[36] = target: T1, 5-hydroxytryptamine receptor 3A (Homo sapiens) (UniProt P46098); settings: Compound concentration 10.0 uM
T1 sequence (whole entry): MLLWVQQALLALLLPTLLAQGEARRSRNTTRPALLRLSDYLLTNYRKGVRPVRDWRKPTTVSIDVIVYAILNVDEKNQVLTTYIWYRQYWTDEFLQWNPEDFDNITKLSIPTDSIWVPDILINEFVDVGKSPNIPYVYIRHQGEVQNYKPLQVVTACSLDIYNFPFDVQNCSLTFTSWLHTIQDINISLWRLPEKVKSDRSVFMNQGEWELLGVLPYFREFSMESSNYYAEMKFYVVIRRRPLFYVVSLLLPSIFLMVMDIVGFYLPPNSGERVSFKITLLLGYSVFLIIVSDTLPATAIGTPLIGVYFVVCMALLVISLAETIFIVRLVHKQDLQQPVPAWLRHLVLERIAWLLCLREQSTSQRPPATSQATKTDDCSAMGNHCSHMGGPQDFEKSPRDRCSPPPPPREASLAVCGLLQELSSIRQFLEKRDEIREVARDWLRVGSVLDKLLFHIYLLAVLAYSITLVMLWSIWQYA

[37] = target: D(3) dopamine receptor (Homo sapiens) (UniProt P35462); settings: Compound concentration 10.0 uM
[38] = target: Histamine H2 receptor (Homo sapiens) (UniProt P25021); settings: Compound concentration 10.0 uM
Sequence of Histamine H2 receptor (Homo sapiens) (P25021 whole entry): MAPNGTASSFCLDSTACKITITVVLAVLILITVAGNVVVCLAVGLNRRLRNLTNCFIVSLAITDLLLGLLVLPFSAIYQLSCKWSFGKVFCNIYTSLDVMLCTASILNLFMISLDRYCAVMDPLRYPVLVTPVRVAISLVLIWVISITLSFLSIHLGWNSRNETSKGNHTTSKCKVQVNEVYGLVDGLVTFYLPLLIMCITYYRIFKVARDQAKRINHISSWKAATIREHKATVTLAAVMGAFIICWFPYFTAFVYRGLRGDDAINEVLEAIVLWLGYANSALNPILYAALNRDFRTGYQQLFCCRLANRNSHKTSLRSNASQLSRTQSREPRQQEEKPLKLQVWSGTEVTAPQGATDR

Structure (SMILES) | residual activity [1] [%] | residual activity [2] [%] | residual activity [3] [%] | residual activity [4] [%] | residual activity [5] [%] | residual activity [6] [%] | residual activity [7] [%] | residual activity [8] [%] | residual activity [9] [%] | residual activity [10] [%] | residual activity [11] [%] | residual activity [12] [%] | residual activity [13] [%] | residual activity [14] [%] | residual activity [15] [%] | residual activity [16] [%] | residual activity [17] [%] | residual activity [18] [%] | residual activity [19] [%] | residual activity [20] [%] | further results
CCS(=O)(=O)c1cc2cc(C[C@@](O)(CC(C)(C)c3ccc(F)cc3C(N)=O)C(F)(F)F)[nH]c2cn1 | 90 | 96 | 100 | 100 | 86 | 100 | 71 | 100 | 56 | 100 | 100 | 100 | 100 | 75 | 80 | 76 | 51 | 77 | 99 | 96 | residual activity [21]: 76%; residual activity [22]: 96%; residual activity [23]: 67%; residual activity [24]: 89%; residual activity [25]: 74%; residual activity [26]: 100%; residual activity [27]: 98%; residual activity [28]: 85%; residual activity [29]: 84%; residual activity [30]: 100%; residual activity [31]: 0%; residual activity [32]: 57%; residual activity [33]: 79%; residual activity [34]: 84%; residual activity [35]: 74%; inhibition [36]: 21.1%; inhibition [37]: 1.8%; inhibition [38]: 6.84%
CCS(=O)(=O)c1cc2cc(C[C@](O)(CC(C)(C)c3ccc(F)cc3C(N)=O)C(F)(F)F)[nH]c2cn1 | 92 | 94 | 100 | 100 | 100 | 100 | 92 | 89 | 100 | 100 | 96 | 88 | 100 | 91 | 100 | 72 | 98 | 98 | 99 | 98 | residual activity [21]: 91%; residual activity [22]: 100%; residual activity [23]: 66%; residual activity [24]: 95%; residual activity [25]: 66%; residual activity [26]: 100%; residual activity [27]: 100%; residual activity [28]: 100%; residual activity [29]: 95%; residual activity [30]: 91%; residual activity [31]: 100%; residual activity [32]: 90%; residual activity [33]: 89%; residual activity [34]: 100%; residual activity [35]: 82%; inhibition [36]: 32.2%; inhibition [37]: 7.81%; inhibition [38]: 12.3%
